Test results taken from ChEMBL document CHEMBL1201862, “PubChem BioAssay data set” (2004).
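The compound was tested at five concentrations on cells cultured in 96-well plates, with a 48-hour exposure period. GI50 is the concentration that inhibits growth by half.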 Active and inactive are the calls of the source. No stated cut-off is given here; in the data, active = GI50 up to about 1.1 µM and inactive = higher.

Legend:
Assay in all cases: growth of human tumour cells (NCI), 48 h
NCI-H226 = system: NCI-H226
HOP-92 = system: HOP-92
SNB-78 = system: SNB-78
CCRF-CEM = system: CCRF-CEM
HCC 2998 = system: HCC 2998
COLO 205 = system: COLO 205
Malme-3M = system: Malme-3M
SF-268 = system: SF-268
RPMI-8226 = system: RPMI-8226
OVCAR-3 = system: OVCAR-3
HCT-15 = system: HCT-15
786-0 = system: 786-0
HOP-62 = system: HOP-62
K562 = system: K562
TK-10 = system: TK-10
SN12C = system: SN12C
IGROV-1 = system: IGROV-1
M14 = system: M14
M19-MEL = system: M19-MEL
LOX IMVI = system: LOX IMVI
XF498 = system: XF498
NCI-H522 = system: NCI-H522
OVCAR-5 = system: OVCAR-5
MOLT-4 = system: MOLT-4
KM12 = system: KM12
HCT-116 = system: HCT-116
ACHN = system: ACHN
SK-MEL-2 = system: SK-MEL-2
RXF 393 = system: RXF 393
HT-29 = system: HT-29
UACC-62 = system: UACC-62
OVCAR-4 = system: OVCAR-4
HOP-18 = system: HOP-18
UO-31 = system: UO-31
CAKI-1 = system: CAKI-1
EKVX = system: EKVX
RXF 631 = system: RXF 631
SNB-75 = system: SNB-75
LXFL 529 = system: LXFL 529
OVCAR-8 = system: OVCAR-8
A549 = system: A549
SF-539 = system: SF-539
SK-MEL-28 = system: SK-MEL-28
UACC-257 = system: UACC-257
SR = system: SR
SNB-19 = system: SNB-19
SK-OV-3 = system: SK-OV-3
DLD-1 = system: DLD-1
HL-60 = system: HL-60
NCI-H460 = system: NCI-H460
DMS-273 = system: DMS-273
SF-295 = system: SF-295
SW-620 = system: SW-620
U-251 = system: U-251
A498 = system: A498
NCI-H23 = system: NCI-H23
DMS-114 = system: DMS-114
KM-20L2 = system: KM-20L2
SK-MEL-5 = system: SK-MEL-5

Measured: GI50

N#CC(C(=O)C(=O)Nc1c(Cl)cccc1Cl)c1ccccc1 (configuration not stated)
> 10 µM: HCT-15
active: LOX IMVI 0.356 µM | OVCAR-5 0.906 µM | SF-295 0.302 µM
inactive: NCI-H226 > 10 µM | HOP-92 > 10 µM | SNB-78 > 10 µM | CCRF-CEM > 10 µM | HCC 2998 > 10 µM | COLO 205 > 10 µM | Malme-3M > 10 µM | SF-268 > 10 µM | RPMI-8226 > 10 µM | OVCAR-3 > 10 µM | 786-0 > 10 µM | HOP-62 > 10 µM | K562 > 10 µM | TK-10 > 10 µM | SN12C > 10 µM | IGROV-1 > 10 µM | M14 > 10 µM | M19-MEL > 10 µM | XF498 > 100 µM | NCI-H522 > 10 µM | MOLT-4 > 10 µM | KM12 > 10 µM | HCT-116 > 10 µM | ACHN > 10 µM | SK-MEL-2 > 10 µM | RXF 393 > 10 µM | HT-29 > 10 µM | UACC-62 > 10 µM | OVCAR-4 > 10 µM | HOP-18 > 10 µM | UO-31 > 10 µM | CAKI-1 > 10 µM | EKVX > 10 µM | RXF 631 > 10 µM | SNB-75 > 10 µM | LXFL 529 > 10 µM | OVCAR-8 > 100 µM | A549 > 10 µM | SF-539 > 10 µM | SK-MEL-28 > 10 µM | UACC-257 > 10 µM | SR > 10 µM | SNB-19 > 10 µM | SK-OV-3 > 10 µM | DLD-1 > 10 µM | HL-60 > 10 µM | NCI-H460 > 10 µM | DMS-273 > 10 µM | SW-620 > 10 µM | U-251 > 10 µM | A498 > 10 µM | NCI-H23 > 10 µM | DMS-114 > 10 µM | KM-20L2 > 10 µM | SK-MEL-5 > 10 µM

Oc1ccc2occ3c2c1CCC3
inactive: HOP-92 29.2 µM | SNB-78 > 100 µM | CCRF-CEM > 100 µM | HCC 2998 > 100 µM | COLO 205 > 100 µM | RPMI-8226 98.4 µM | OVCAR-3 64.1 µM | 786-0 > 100 µM | HOP-62 > 100 µM | K562 65.8 µM | TK-10 > 100 µM | SN12C > 100 µM | IGROV-1 > 100 µM | M14 > 100 µM | M19-MEL > 100 µM | LOX IMVI > 100 µM | XF498 67 µM | MOLT-4 > 100 µM | HCT-116 > 100 µM | ACHN > 100 µM | RXF 393 75.2 µM | HT-29 > 100 µM | UACC-62 95.9 µM | OVCAR-4 > 100 µM | HOP-18 > 100 µM | CAKI-1 > 100 µM | EKVX 72.6 µM | RXF 631 > 100 µM | SNB-75 > 100 µM | LXFL 529 > 100 µM | OVCAR-8 > 100 µM | A549 > 100 µM | SF-539 > 100 µM | SK-MEL-28 > 100 µM | UACC-257 > 100 µM | SNB-19 > 100 µM | SK-OV-3 > 100 µM | DLD-1 > 100 µM | HL-60 44.4 µM | NCI-H460 > 100 µM | DMS-273 > 100 µM | SF-295 > 100 µM | SW-620 > 100 µM | U-251 > 100 µM | A498 > 100 µM | NCI-H23 > 100 µM | DMS-114 81.8 µM | KM-20L2 > 100 µM | SK-MEL-5 > 100 µM
> 100 µM: HCT-15

CCCOc1ccc(/C=C\c2cc(OC)c(OC)c(OC)c2)cc1
43.6 µM: HCT-15
inactive: NCI-H226 > 100 µM | HOP-92 34.7 µM | SNB-78 > 100 µM | CCRF-CEM > 100 µM | COLO 205 39.2 µM | Malme-3M 62.2 µM | SF-268 > 100 µM | RPMI-8226 14.5 µM | OVCAR-3 > 100 µM | 786-0 > 100 µM | HOP-62 > 100 µM | K562 23.8 µM | TK-10 31.8 µM | SN12C 65.3 µM | IGROV-1 > 100 µM | M14 53.3 µM | M19-MEL 67.8 µM | LOX IMVI 27.4 µM | XF498 62.2 µM | NCI-H522 13.2 µM | OVCAR-5 10.1 µM | KM12 28.4 µM | HCT-116 40.5 µM | ACHN 73.3 µM | RXF 393 40.1 µM | HT-29 26.5 µM | UACC-62 41.4 µM | OVCAR-4 30.5 µM | HOP-18 > 100 µM | UO-31 33.2 µM | CAKI-1 58.3 µM | EKVX 87.5 µM | RXF 631 37.1 µM | SNB-75 85.5 µM | LXFL 529 52.8 µM | OVCAR-8 > 100 µM | A549 40.7 µM | SF-539 74.3 µM | SK-MEL-28 63.4 µM | UACC-257 54 µM | SNB-19 > 100 µM | DLD-1 87.7 µM | HL-60 18.9 µM | NCI-H460 68.2 µM | DMS-273 36.3 µM | SF-295 39.9 µM | SW-620 55.1 µM | U-251 68.9 µM | A498 26.6 µM | DMS-114 34.4 µM | KM-20L2 33 µM | SK-MEL-5 13.6 µM
